Drawing on US20140309210A1, “INDAZOLE COMPOUNDS, COMPOSITIONS AND METHODS OF USE THEREOF” (Genentech, Inc., priority 2011, published 2014), this text covers Ki for 14 molecules.

As a reminder, the Ki is a dissociation constant, usually derived from enzyme kinetics or from competition with a known ligand.

The experiment addresses T1, purified ITK (Invitrogen PV3875) (Homo sapiens, UniProt Q08881).
T1 construct: purchased Invitrogen PV3875
T1 sequence (Q08881 1-620): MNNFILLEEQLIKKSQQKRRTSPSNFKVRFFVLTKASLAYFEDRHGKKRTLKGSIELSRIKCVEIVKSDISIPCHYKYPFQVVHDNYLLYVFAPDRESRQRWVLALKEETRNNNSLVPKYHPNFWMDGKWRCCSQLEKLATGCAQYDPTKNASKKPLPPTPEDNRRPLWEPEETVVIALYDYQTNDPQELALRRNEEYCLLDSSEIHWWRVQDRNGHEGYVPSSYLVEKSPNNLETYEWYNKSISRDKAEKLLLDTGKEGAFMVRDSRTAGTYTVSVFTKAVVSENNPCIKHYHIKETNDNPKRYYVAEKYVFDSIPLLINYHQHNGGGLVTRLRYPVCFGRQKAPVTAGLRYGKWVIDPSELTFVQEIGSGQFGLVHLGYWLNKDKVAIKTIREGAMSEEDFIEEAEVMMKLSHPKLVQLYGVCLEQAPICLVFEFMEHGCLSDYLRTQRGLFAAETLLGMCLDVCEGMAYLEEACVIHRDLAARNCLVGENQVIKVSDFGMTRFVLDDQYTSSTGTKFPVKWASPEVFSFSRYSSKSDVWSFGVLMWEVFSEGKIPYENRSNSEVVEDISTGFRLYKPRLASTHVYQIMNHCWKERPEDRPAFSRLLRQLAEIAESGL
Kind of experiment: ITK peptide phosphorylation assay (Caliper LabChip or LCMS). It counts as biochemical. The method in brief:
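Ki values come from Morrison quadratic fits of activity versus inhibitor concentration, adjusted for ATP-competitive inhibition against ATP/Km,app. Substrate and phosphopeptide from purified ITK reactions were resolved either microfluidically (Caliper, EDTA stop) or by LC-MS MRM (TCA stop).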

Setting [1] is: Table 2, Examples 1-140, class symbols.

Some results are limits rather than exact numbers.

With `O=C(Nc1cnn(CCCN2CCCC(O)C2)c1)c1n[nH]c2ccccc12` (stereo not drawn) [Example 74, N-(1-(3-(3-Hydroxypiperidin-1-yl)propyl)-1H-pyrazol-4-yl)-1H-indazole-3-carboxamide], the Ki under setting [1] is greater than 100 nM.

In turn, `CC(CO)c1ccc2[nH]nc(C(=O)Nc3cnn(Cc4cccc(C#N)c4)c3)c2c1` (stereo not drawn) [Example 187, N-[1-[(3-cyanophenyl)meth-yl]pyrazol-4-yl]-5-(2-hydroxy-1-methyl-ethyl)-1H-indazole-3-carboxamide] registered a Ki (Table 1, Examples 141-279) of 7.8 nM.

Molecule `O=C(Nc1cnn(Cc2csc(N3CCC(O)CC3)n2)c1)c1n[nH]c2cc(-c3cn[nH]c3)ccc12` [Example 159, N-[1-[[2-(4-hydroxy-1-piperidyl)thiazol-4-yl]methyl]pyrazol-4-yl]-6-(1H-pyrazol-4-yl)-1H-indazole-3-carboxamide] displayed a Ki (Table 1, Examples 141-279) of 3.11 nM.

As to `CN(CCC#N)Cc1cccc(Cn2cc(NC(=O)c3n[nH]c4ccccc34)cn2)c1` [Example 100, N-(1-(3-(((2-cyanoethyl)(methyl)amino)methyl)benzyl)-1H-pyrazol-4-yl)-1H-indazole-3-carboxamide], the Ki under setting [1] was in the range of 1 to 100 nM.

`N#Cc1cccc(Cn2cc(NC(=O)c3n[nH]c4cc(-c5cncs5)ccc34)cn2)c1` [Example 202, N-[1-[(3-cyanophenyl)meth-yl]pyrazol-4-yl]-6-thiazol-5-yl-1H-indazole-3-carboxamide] returned a Ki (Table 1, Examples 141-279) of 5.77 nM.

`O=C(Nc1cnn(Cc2noc3ccccc23)c1)c1n[nH]c2cc(-c3cn[nH]c3)ccc12` [Example 14, 6-(1H-Pyrazol-4-yl)-1H-indazole-3-carboxylic acid (1-1,2-benzisoxazol-3-ylmethyl-1H-pyrazol-4-yl)-amide]: the Ki runs as follows: under setting [1], 1 to 100 nM; (Table 3, specific values for certain examples) 2 nM.

As for `CC(C)(O)CNCc1cccc(Cn2cc(NC(=O)c3n[nH]c4ccccc34)cn2)c1` [Example 90, N-(1-(3-((2-hydroxy-2-methylpropylamino)methyl)benzyl)-1H-pyrazol-4-yl)-1H-indazole-3-carboxamide], the Ki under setting [1] lay within 1 to 100 nM.

Under “Table 1, Examples 141-279”, `CN(CCC(c1ccccc1)n1cc(NC(=O)c2n[nH]c3ccccc23)cn1)CC(F)F` (stereo not drawn) [Example 273, N-[1-[3-[2,2-difluoroethyl(meth-yl)amino]-1-phenyl-propyl]pyrazol-4-yl]-1H-indazole-3-carboxamide] registered a Ki of 8.3 nM.

Under “Table 1, Examples 141-279”, `CNc1cc(-c2ccc3c(C(=O)Nc4cnn(Cc5ccccc5)c4)n[nH]c3c2)ncn1` [Example 217, N-(1-benzylpyrazol-4-yl)-6-[6-(methylamino)py-rimidin-4-yl]-1H-indazole-3-carboxamide] gave a Ki of 404 nM.

The molecule `CN(CCC(c1ccccc1)n1cc(NC(=O)c2n[nH]c3ccccc23)cn1)CC(F)(F)F` (stereo not drawn) [Example 270, N-[1-[3-[methyl(2,2,2-trifluoroethyl)a-mino]-1-phenyl-propyl]pyrazol-4-yl]-1H-indazole-3-carboxamide] had a Ki (Table 1, Examples 141-279) of 8.92 nM.

For the molecule `O=C(Nc1cnn([C@@H](CO)c2cscn2)c1)c1n[nH]c2cc(-c3cn[nH]c3)ccc12` [Example 177, N-[1-[(1R)-2-hydroxy-1-thiazol-4-yl-ethyl]pyrazol-4-yl]-6-(1H-pyrazol-4-yl)-1H-indazole-3-carboxamide], the Ki (Table 1, Examples 141-279) came to 7.5 nM.

For `CN1CC=C(c2ccc3c(C(=O)Nc4cnn(Cc5cccc(C#N)c5)c4)n[nH]c3c2)CC1` [Example 165, N-[1-[(3-cyanophenyl)meth-yl]pyrazol-4-yl]-6-(1-methyl-3,6-dihydro-2H-pyridin-4-yl)-1H-indazole-3-carboxamide], under “Table 1, Examples 141-279”, the Ki worked out at 654 nM.

`CN(C)CC(c1ccccc1)n1cc(NC(=O)c2n[nH]c3cc(-c4cn[nH]c4)ccc23)cn1` (stereo not drawn) [Example 135, N-(1-(2-(dimethylamino)-1-phenylethyl)-1H-pyrazol-4-yl)-6-(1H-pyrazol-4-yl)-1H-indazole-3-carboxamide] displayed a Ki under setting [1] of 0.01 to 1 nM.

Take `COC1CCN(c2ccc3c(C(=O)Nc4cnn(Cc5cccc(C#N)c5)c4)n[nH]c3c2)C1` (stereo not drawn) [Example 208, N-[1-[(3-cyanophenyl)meth-yl]pyrazol-4-yl]-6-(3-methoxypyrrolidin-1-yl)-1H-indazole-3-carboxamide]: affinity (Table 1, Examples 141-279) was put at a Ki of 458 nM.
